Laboratory results as given in patent US11311546B2, “Method for enhancing wound healing by administrating adenine” (Energenesis Biomedical Co., Ltd., priority 2017, dated 2022).

Legend:
[1] = test system: diabetic wound of db/db mice; test: Diabetic wound healing, 0.02% adenine gel on splinted full thickness wound; format: in vivo; settings: 0.02% adenine in a form of gel, once daily for 15 days
Description: The BKS. Cg-Dock7^m+/+Lepr^db/Jnarl (db/db) male mice at 8 weeks of age were purchased from the National Laboratory Animal Center (NLAC, R.O.C.). A total number of 10 mice with healthy and intact skin were used for the test for diabetic wound healing. The average±SEM body weight of the mice was 34.5±1.5 g. All mice had fasting blood glucose levels over 300 mg/dL.
The mice were housed individually in stainless steel cage, and were quarantined and acclimated for at least one week prior to test for diabetic wound healing. The temperature and relative humidity were in the range stipulated in the protocol at 21±2° C. and 55±10%, respectively. A 12-h/12-h light/dark cycle was maintained with light on at 7:00 AM and off at 7:00 PM.
The method for applying the composition containing 0.02% of adenine to the diabetic wound of mice was shown as follows. The mice described in Preparation example 4 were randomly divided into two groups of five animals each and then were anesthetized with isoflurane by use of an anesthesia system for rodents (Matrx™ VIP 3000 isoflurane vaporizer, Midmark). […]
(§1) Wounds of each mice were photographed everyday with standardized exposure and focal lengths using a digital camera (Lumix DMC-GF1, Panasonic), and wound areas were analyzed and calculated according to the analysis as described in Example 1.

[2] = test system: pressure ulcer wound of C57BL/6 mice; test: Pressure ulcer healing; format: in vivo; settings: 1 to 4,000 μM adenine in normal saline
Description: The C57BL/6 mice approximately at 8 weeks of age were purchased from the National Laboratory Animal Center (NLAC, R.O.C.). The mice were anesthetized with isoflurane using anesthesia system for rodents (Matrx™ VIP 3000 isoflurane vaporizer, Midmark). Before wounding, the dorsal surface was shaved and sterilely prepped with 70% ethanol for surgery. Dorsal skin was positioned between 2 circular magnets having 12-mm diameter for 12 hours and removed from them for 12 hours for 1 ischemia-reperfusion cycle. Pressure ulcer was created by 2 ischemia-reperfusion cycles. The force generated between the 2 magnets was 0.183N for a 5-mm skin bridge between the 2 magnets.
After 2 ischemia-reperfusion cycles, the compositions containing 1 μM to 4,000 μM adenine in normal saline or only normal saline as Control were individually applied on the pressure ulcer wound of mice once daily for 14 days.
as §1

ATP = ATP assay in regenerated skin tissue; format: in vivo; settings: db/db mice; 12 days post wounding; ATP colorimetric assay
Description: The process of animal experiment was the same as Example 2, except that after 12 days post wounding, skin tissues of db/db mice were homogenized and centrifuged for 10 mins with 8,000 rpm at 4° C. Supernatant from tissue lysate was filled up in the column and spun down at 1,000×g for 2 minutes. 10 μL of eluate was analyzed using ATP colorimetric assay kit (Biovision).

3T3 cells = test: Fibroblast (3T3) cell proliferation assay; format: cell-based, Human; settings: 72 h; dose-dependent
Description: […] fibro blast cell line 3T3 were cultured in high-glucose Dulbecco's modified Eagle's medium (DMEM) containing 10% fetal bovine serum (FBS), 4 mM L-glutamine, 2 mM sodium pyruvate and 1% penicillin/streptomycin (Invitrogen GibeoBRL, Carlsbad, Calif., USA) at 37° C. under 5% CO2. For cell proliferation assay, 3T3 cells were plated at 1×10^5 per well (6-well plate). 24 h after plating, cells were treated with indicated concentration of adenine for 72 h and the number of viable cells was counted. Cells were detached using trypsin-EDTA solution and stained with trypan blue. The living cells were counted using hemocytometer. […] Data were presented as the mean±SEM of three independent experiments.

AMPK = AMPK activation assay (western blot of regenerated skin tissue); format: in vivo; settings: db/db mice, 12 days post wounding
Description: Effects of adenine on AMPK activation were evaluated based on the phosphorylation of AMPK and Acetyl-CoA carboxylase (ACC) protein upon adenine treatment. The process of animal experiment was the same as Example 2, except that after 12 days post wounding, skin tissues of db/db mice were homogenized and subject to western blot analysis. Equal amount of proteins from each sample was separated by SDS-PAGE and then electroblotted on to PVDF membranes. Membranes were blocked with 3% BSA in PBS for 60 mins and incubated with an anti-phospho-AMPK (Thr172) antibody (1:2000, Cell Signaling), an anti-AMPK antibody (1:2000, Cell Signaling), an anti-ACC antibody (1:1000, Cell Signaling) or an anti-phospho-ACC antibody (1:1000, Cell Signaling) at 4° C. overnight followed by the corresponding secondary antibody for 1 h at room temperature (RT). Immunoreactive bands were detected by enhanced chemiluminescence (ECL; Pierce, Rockford, Ill., USA) and recorded using Kodak film (Rochester, N.Y., USA). The detected signals were scanned and then quantified using ImageJ software.

[3] = test system: full-thickness excisional skin wounds of C57BL/6J mice; test: Excisional skin wound healing and scar formation; format: in vivo
Description: C57BL/6J mice were maintained at 22° C. under a 12-h light/dark cycle. The experiments were performed with 12-weeks old mice. After anesthetized by an intraperitoneal injection of ketamine ([…]) and xylazine (100 mg/kg), 6-mm full-thickness excisional skin wounds was made on the backs of mice using 6-mm skin biopsy punches. Immediately after wounding, 1 μM to 4000 μM of adenine in […] saline or saline alone was applied to the wound bed. The skin wounds were then covered by semipermeable transparent dressing and fixed to the skin. The mice were treated with adenine or vehicle for 14 days and then sacrificed. The scar formation was assessed by Masson's trichrome staining to observe the fibrosis process and the collagen framework of the healed wound (Fixed by 4% paraformaldehyde).

[4] = test system: scald burn wound of C57BL/6 mice; test: Scald burns healing; format: in vivo; settings: 1 to 4,000 μM adenine in normal saline, once daily for 28 days
Description: The C57BL/6 mice approximately at 8 weeks of age were purchased from the National Laboratory Animal Center (NLAC, R.O.C.). The mice were deeply anesthetized by injecting intraperitoneally normal saline mixed with zoletil 50 and 2% rompun in a ratio of 2:1:1 (2 μl per gram of body weight). Each of the mice was shaved by depilatory cream. The shaved dorsal surface of each mice was sterilized with 70% ethanol and then the mice were placed in a restrainer with a 2×3 cm hole at the top. The dorsal surface of mice was exposed toward the hole of restrainer. The water at 60° C. was applied to the dorsal surface of mice for 40 seconds, followed by water at 4° C. for 45 seconds. The mice of Control group was only applied with water at 4° C. for 45 seconds. After scalding, each of the mice was then individually placed in a cage, and fed with diazepam in the drinking water (50 mg/L) for the early 7 days. The mice were monitored every day for body weight of and wound infections. […]
as §1

Nc1ncnc2nc[nH]c12 [Adenine, adenine]
process of diabetic wound healing [1]: efficiently enhance the process of diabetic wound healing
process of healing of pressure ulcer wound ([2]; once daily for 14 days): efficiently enhance the process of healing of pressure ulcer wound
extent of closure versus control mice ([2]; after 14 day of treatment, dose-dependent): significantly greater
ATP level in regenerated skin tissue (ATP): efficiently increase ATP level
3T3 cell proliferation (3T3 cells): significantly inhibited
phosphorylation level of ACC in regenerated skin tissue (AMPK): efficiently enhance phosphorylation level
phosphorylation level of AMPK in regenerated skin tissue (AMPK): efficiently enhance phosphorylation level
scar width compared to vehicle treated wounds ([3]; 14 days post-wounding, topical treatment, histological examination): significantly decreased
extent of closure versus control mice ([3]; after 14 days of treatment, 1 μM to 4000 μM adenine in saline, dose-dependent): significantly greater
inflammatory response [4]: efficiently decrease inflammatory response
process of healing of scald burns wound [4]: enhance the process of healing of scald burns wound
